Earlier results on 1 substance are cited in patent US11008566B2, “Method for obtaining antibody” (Chiome Bioscience Inc., priority 2016, dated 2021).

The conditions of this data set: antibody drugs, Non Patent Literatures 1 and 2.

What is called Kd is the equilibrium constant for the complex coming apart. “Lucentis: antibody drug (registered trademark), high-affinity antibody”: the Kd is 0.046 nM.
